Experiment [1] deals with T1, Histamine H2 receptor (Homo sapiens, UniProt P25021). As to the kind of experiment: Antagonist activity at human recombinant histamine H2 receptor-Gsalphas fusion protein expressed in Sf9 cells assessed as inhibition of histamine-induced [35S]GTPgammaS binding after 90 mins by liquid scintillation counting. The format is functional. On the technique in general: Binding of GTPγS marks nucleotide exchange on a G protein.

Experiment [2] addresses T1, Histamine H2 receptor. Nature of the experiment: Intrinsic activity at human recombinant histamine H2 receptor-Gsalphas fusion protein expressed in Sf9 cells assessed as [35S]GTPgammaS binding at 10 uM after 90 mins by liquid scintillation counting relative to histamine. In kind it is functional.
Experiment [3] concerns the target T2, Histamine H4 receptor (Homo sapiens, UniProt Q9H3N8). As to the kind of experiment: Agonist activity at human recombinant histamine H4 receptor-RGS19 fusion protein expressed in Sf9 cells coexpressing Galphai2,Gbeta1gamma2 assessed as [35S]GTPgammaS binding after 90 mins by liquid scintillation counting. In kind it is functional.
Experiment [4] deals with T3, Histamine H3 receptor (Homo sapiens, UniProt Q9Y5N1). As to the kind of experiment: Agonist activity at human recombinant histamine H3 receptor expressed in Sf9 cells coexpressing Galphai2,Gbeta1gamma2 and RGS4 assessed as [35S]GTPgammaS binding after 90 mins by liquid scintillation counting. In kind it is functional.
Experiment [5] has as its target Histamine H1 receptor (Homo sapiens) (UniProt P35367). The following applies: Sf9.
Experiment [6] deals with T2, Histamine H4 receptor. Nature of the experiment: Antagonist activity at human recombinant histamine H4 receptor-RGS19 fusion protein expressed in Sf9 cells coexpressing Galphai2,Gbeta1gamma2 assessed as inhibition of histamine-induced [35S]GTPgammaS binding after 90 mins by liquid scintillation counting. The format is functional.
The target in experiment [7] is T3, Histamine H3 receptor. Nature of the experiment: Antagonist activity at human recombinant histamine H3 receptor expressed in Sf9 cells coexpressing Galphai2,Gbeta1gamma2 and RGS4 assessed as inhibition of histamine-induced [35S]GTPgammaS binding after 90 mins by liquid scintillation counting. The format is functional.
The target of experiment [8] is T2, Histamine H4 receptor. As to the kind of experiment: Intrinsic activity at human recombinant histamine H4 receptor-RGS19 fusion protein expressed in Sf9 cells coexpressing Galphai2,Gbeta1gamma2 assessed as [35S]GTPgammaS binding at 10 uM after 90 mins by liquid scintillation counting relative to histamine. The format is functional.
Experiment [9] concerns the target T3, Histamine H3 receptor. As to the kind of experiment: Intrinsic activity at human recombinant histamine H3 receptor expressed in Sf9 cells coexpressing Galphai2,Gbeta1gamma2 and RGS4 assessed as [35S]GTPgammaS binding at 10 uM after 90 mins by liquid scintillation counting relative to histamine. In kind it is functional.
In experiment [10] the target is Histamine H1 receptor (Homo sapiens) (UniProt P35367). Nature of the experiment: Antagonist activity at human recombinant histamine H1 receptor expressed in Sf9 cells coexpressing RGS4 assessed as inhibition of histamine-induced […] hydrolysis preincubated for 2 mins before [gamma32P]GTP addition measured after 20 mins by steady-state GTPase activity assay. The format is functional.

Experiment [11] shares this target. Nature of the experiment: Intrinsic activity at human recombinant histamine H1 receptor expressed in Sf9 cells coexpressing RGS4 preincubated for 2 mins before [gamma32P]GTP addition measured after 20 mins by steady-state GTPase activity assay relative to histamine.
Experiment [12] addresses T2, Histamine H4 receptor. Nature of the experiment: Antagonist activity at human recombinant histamine H4 receptor-RGS19 fusion protein expressed in Sf9 cells coexpressing Galphai2,Gbeta1gamma2 assessed as inhibition of histamine-induced […] hydrolysis preincubated for 2 mins before [gamma32P]GTP addition measured after 20 mins by steady-state GTPase activity assay. The format is functional.

The target in experiment [13] is T3, Histamine H3 receptor. As to the kind of experiment: Antagonist activity at human recombinant histamine H3 receptor expressed in Sf9 cells coexpressing Galphai2,Gbeta1gamma2 and RGS4 assessed as inhibition of histamine-induced […] hydrolysis preincubated for 2 mins before [gamma32P]GTP addition measured after 20 mins by steady-state GTPase activity assay. In kind it is functional.

Experiment [14] has as its target T1, Histamine H2 receptor. Nature of the experiment: Antagonist activity at human recombinant histamine H2 receptor-Gsalphas fusion protein expressed in Sf9 cells assessed as inhibition of histamine-induced […] hydrolysis preincubated for 2 mins before [gamma32P]GTP addition measured after 20 mins by steady-state GTPase activity assay. The format is functional.

Experiment [15] deals with T3, Histamine H3 receptor. Nature of the experiment: Intrinsic activity at human recombinant histamine H3 receptor expressed in Sf9 cells coexpressing Galphai2,Gbeta1gamma2 and RGS4 preincubated for 2 mins before [gamma32P]GTP addition measured after 20 mins by steady-state GTPase activity assay relative to histamine.
Experiment [16] addresses T1, Histamine H2 receptor. As to the kind of experiment: Intrinsic activity at human recombinant histamine H2 receptor-Gsalphas fusion protein expressed in Sf9 cells preincubated for 2 mins before [gamma32P]GTP addition measured after 20 mins by steady-state GTPase activity assay relative to histamine.

Calls of active or inactive are those of the source. No cut-off for these calls is given here.

T1 sequence (P25021 whole entry, the tested form may be a part): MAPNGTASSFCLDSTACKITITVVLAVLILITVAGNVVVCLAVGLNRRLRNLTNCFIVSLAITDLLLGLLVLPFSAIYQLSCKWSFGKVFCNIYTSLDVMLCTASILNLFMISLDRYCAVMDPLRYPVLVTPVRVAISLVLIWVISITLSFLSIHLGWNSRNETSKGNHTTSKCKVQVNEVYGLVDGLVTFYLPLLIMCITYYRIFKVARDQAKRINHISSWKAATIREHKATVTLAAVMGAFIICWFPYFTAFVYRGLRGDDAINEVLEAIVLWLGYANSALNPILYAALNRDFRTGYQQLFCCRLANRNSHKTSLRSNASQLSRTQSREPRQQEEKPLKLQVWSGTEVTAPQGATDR
T2 sequence (Q9H3N8 whole entry, the tested form may be a part): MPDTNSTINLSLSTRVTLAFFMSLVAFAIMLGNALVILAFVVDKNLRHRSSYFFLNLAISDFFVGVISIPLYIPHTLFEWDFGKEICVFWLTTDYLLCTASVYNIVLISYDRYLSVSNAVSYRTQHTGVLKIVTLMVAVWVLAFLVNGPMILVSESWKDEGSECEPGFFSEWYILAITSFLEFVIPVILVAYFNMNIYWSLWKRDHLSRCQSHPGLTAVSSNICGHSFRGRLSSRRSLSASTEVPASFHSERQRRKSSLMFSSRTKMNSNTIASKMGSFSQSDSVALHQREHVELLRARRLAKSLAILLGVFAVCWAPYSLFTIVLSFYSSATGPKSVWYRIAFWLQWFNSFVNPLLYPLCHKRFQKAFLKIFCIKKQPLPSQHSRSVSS
T3 sequence (Q9Y5N1 whole entry): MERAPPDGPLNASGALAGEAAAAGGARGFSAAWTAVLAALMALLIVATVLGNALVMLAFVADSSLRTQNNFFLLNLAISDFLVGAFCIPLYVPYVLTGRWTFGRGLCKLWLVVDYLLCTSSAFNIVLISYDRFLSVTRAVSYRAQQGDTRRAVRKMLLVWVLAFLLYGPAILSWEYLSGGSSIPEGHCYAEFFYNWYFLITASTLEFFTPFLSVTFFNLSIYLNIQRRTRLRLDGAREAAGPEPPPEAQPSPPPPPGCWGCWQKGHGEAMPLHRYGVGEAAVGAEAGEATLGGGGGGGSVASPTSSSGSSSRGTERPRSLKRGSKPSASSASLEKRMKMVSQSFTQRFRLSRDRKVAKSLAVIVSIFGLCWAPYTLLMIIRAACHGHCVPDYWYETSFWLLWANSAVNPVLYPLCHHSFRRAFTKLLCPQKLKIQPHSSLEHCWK
Chain of Histamine H1 receptor (Homo sapiens) (P35367 whole entry, the tested form may be a part): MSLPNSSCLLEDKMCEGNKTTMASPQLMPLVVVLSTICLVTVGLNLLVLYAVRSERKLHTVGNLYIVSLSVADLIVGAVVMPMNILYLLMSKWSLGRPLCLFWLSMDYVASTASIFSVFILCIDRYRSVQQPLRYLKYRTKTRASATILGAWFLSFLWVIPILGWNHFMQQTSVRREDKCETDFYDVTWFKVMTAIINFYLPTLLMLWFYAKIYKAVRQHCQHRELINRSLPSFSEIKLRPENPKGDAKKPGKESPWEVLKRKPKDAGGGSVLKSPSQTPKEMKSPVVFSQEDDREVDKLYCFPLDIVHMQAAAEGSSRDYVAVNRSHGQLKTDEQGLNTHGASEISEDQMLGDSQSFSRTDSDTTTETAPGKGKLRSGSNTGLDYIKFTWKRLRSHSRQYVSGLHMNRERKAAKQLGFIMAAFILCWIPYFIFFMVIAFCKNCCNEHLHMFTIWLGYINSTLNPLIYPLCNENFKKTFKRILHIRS

Broadly, the pKb is the Kb on a negative log10 scale, so that one unit is a factor of ten. As for `CN/C(=N/C#N)NCCCCc1nc(N)n[nH]1`, in [1], the pKb was below 5. The Intrinsic activity in [2] is 0.31. The pEC50 result in [3], in [4] and in experiment [5] was “inactive” throughout.
As for `N#C/N=C(/NCCCNc1nccc(N)n1)NCCSc1ccccc1`, the pKb in [6] is below 5; in [7], 5.14; in experiment [1], below 5; in [10], below 5. Moreover, the Intrinsic activity in [8] is -0.09; in experiment [9], -0.71; in [2], -0.11; in [11], 0.01.
Take `CC(CC(=O)/N=C(\N)NCCCc1ccccc1)c1ccccc1` (stereo not given): the pKb in experiment [12] is below 5; in [13], below 5; in experiment [14], 5.89; in experiment [10], 5.05. In addition, the Intrinsic activity in experiment [15] was -0.19; in experiment [16] it was -0.1; in experiment [11], -0.02.
The EC50 is the concentration needed to bring the measured effect to its halfway point. On to `CN/C(=N/C#N)NCCCc1c[nH]c(C)n1`, for which the pKb in experiment [7] and in experiment [1] was below 5 each time. Moreover, the Intrinsic activity in experiment [8] was 0.74; in [9] it was -0.52; in experiment [2] it was -0.02. For the same compound, in experiment [3], the EC50 is 550 nM. Further, in experiment [10], the pKb entry was “inactive”. In addition, the Intrinsic activity result in [11] was “inactive”. Further, the pEC50 entry in experiment [5] is “inactive”.
Take `N#C/N=C(/NCCCCc1c[nH]cn1)NCCSc1ccccc1`: the pKb in experiment [7] came to 6.14. Further, the Intrinsic activity in experiment [8] was 0.88; in experiment [9] it was -0.52; in experiment [11], 7%. Also, the concentration for a half-maximal effect (EC50) in experiment [3] is 37.2 nM.
In the case of `N#C/N=C(\NCCCNc1nc(N)n[nH]1)NCCSc1ccccc1`, the pKb in experiment [1] was below 5. In addition, the Intrinsic activity in experiment [2] is -0.01. The pEC50 entry in [3], in experiment [4] and in [5] was “inactive” each time.
As to `N#C/N=C(/NCCCSc1nc(N)n[nH]1)NCCSc1ccccc1`, in experiment [1], the pKb was below 5. For the same compound, the Intrinsic activity in experiment [2] is -0.05. In addition, the pEC50 entry in [3], in experiment [4] and in [5] was “inactive” each time.
Consider `Cc1nccn1CCCCCN/C(=N\C#N)NCCSc1ccccc1`, for which the pKb in experiment [6], in experiment [7], in experiment [1] and in experiment [10] was below 5 throughout. Moreover, the Intrinsic activity in experiment [8] was -0.05; in experiment [9], -0.42; in experiment [2], -0.08; in experiment [11], 0.03.
With `CN(C)Cc1ccc(CCCN/C(N)=N/C(=O)CC(c2ccccc2)c2nccs2)o1` (stereo not given), the pKb in experiment [12] is below 5; in experiment [13], 5.51; in [14], 6.13. For the same compound, the Intrinsic activity in experiment [15] is -0.62; in experiment [16], -0.13.
Turning to `N/C(=N\C(=O)CC(c1ccccc1)c1ccccc1)NCCCc1ccncc1`, the pKb in [12] is below 5; in experiment [13], 5.06; in experiment [14], 6.14; in [10], below 5. The values for the Intrinsic activity in [15], in [16] and in experiment [11] were -0.08, -0.12 and 0.08, respectively.
For `N#C/N=C(\NCCCCc1cnn[nH]1)NCCSc1ccccc1`, the pKb in experiment [1] and in experiment [10] was below 5 each time. For the same compound, the Intrinsic activity in [2] is -0.04; in [11], -0.02. Also, the pEC50 entry in [3] and in [4] was “inactive” in each case.
Take `CN/C(=N\CCSCc1nc[nH]c1C)NC#N`: the pKb in experiment [6] is below 5; in experiment [1], 5.77.
With `N/C(=N\C(=O)CC(c1ccccc1)c1ccccc1)NCCCc1ccccn1`, the pKb in [12] was below 5; in experiment [13] it was 5.35; in [14], 5.68; in experiment [10] it was 5.41. The Intrinsic activity in [15] is -0.44; in [16] it was 0; in experiment [11], 0.1.
As for `N#C/N=C(/NCCNc1nccc(N)n1)NCCSc1ccccc1`, the pKb in experiment [7], in experiment [1] and in experiment [10] was below 5 throughout. Besides, the Intrinsic activity in experiment [9] was -1.43; in experiment [2] it was -0.08; in experiment [11], 0.01. In addition, the pEC50 result in experiment [3] was “inactive”.
Regarding `Cc1nc(CCCN/C(=N\C#N)NCCSc2ccccc2)c[nH]1`, the pKb in experiment [7] was below 5; in experiment [1] it was below 5; in experiment [10], below 5.3. For the same compound, the Intrinsic activity was 0.4 in [8], -1.11 in [9], -0.05 in [2] and 0.03 in experiment [11]. Besides, the EC50 in experiment [3] is 468 nM.
Turning to `N#C/N=C(\NCCCCc1nc(N)n[nH]1)NCCSc1ccccc1`, the pKb in experiment [1] and in experiment [10] was below 5 in each case. The figures for the Intrinsic activity in experiment [2] and in experiment [11] were 0.03 and 0.01, respectively. Besides, the pEC50 entry in experiment [3] and in experiment [4] was “inactive” each time.
With `N#C/N=C(/NCCCCNc1nc(N)n[nH]1)NCCSc1ccccc1`, the pKb in [1] was below 5. For the same compound, in experiment [2], the Intrinsic activity is -0.09. The pEC50 result in [3], in experiment [4] and in experiment [5] was “inactive” throughout.
Take `CN/C(=N\C#N)NCCCSc1nc(N)n[nH]1`: the pKb in experiment [1] is below 5. The Intrinsic activity in experiment [2] was -0.02. The pEC50 result in experiment [3], in [4] and in experiment [5] was “inactive” in each case.
For `N/C(=N\C(=O)CC(c1ccccc1)c1ccccc1)NCCCc1ccccc1`, the negative logarithm of the Kb (pKb) is below 5 in [12], 5.1 in experiment [13], 5.89 in [14] and 5.26 in [10]. The Intrinsic activity in [15] is -0.24; in experiment [16], -0.12; in experiment [11], -0.01.
In the case of `N/C(=N\C(=O)CC(c1ccccc1)c1ccccc1)NCCCc1cccnc1`, the negative logarithm of the Kb (pKb) in [12] is below 5; in [13] it was below 5; in experiment [14] it was 6.14; in experiment [10] it was 5.04. The Intrinsic activity was -0.14 in experiment [15], -0.16 in experiment [16] and 0.06 in [11].
On to `N/C(=N\C(=O)CC(c1ccccc1)c1nccs1)NCCCc1ncc[nH]1` (stereo not given), for which the figures for the pKb in [12], in experiment [13] and in [14] were below 5, 5.28 and 5.19, respectively. The figures for the Intrinsic activity in [15] and in experiment [16] were -0.46 and 0, respectively.
For `CN/C(=N/C#N)NCCCCCn1ccnc1C`, the pKb in experiment [7], in experiment [1] and in experiment [10] was below 5 each time. Also, the Intrinsic activity in [8] is 0.06; in [9] it was -0.26; in experiment [2] it was -0.07; in experiment [11], -0.01. Moreover, the pEC50 entry in [3] is “inactive”.
Regarding `CN/C(=N/C#N)NCCCNc1nc(N)n[nH]1`, in experiment [1], the pKb is below 5. Moreover, the Intrinsic activity in experiment [2] was -0.03. The pEC50 result in [3], in experiment [4] and in [5] was “inactive” each time.
As for `CN/C(=N/C#N)NCCCCc1nc[nH]c1C`, the pKb in experiment [1] and in experiment [10] was below 5 throughout. Besides, the Intrinsic activity in [8] is 0.6; in experiment [9], 0.23; in [2], 0.04; in experiment [11], -0.03. For the same compound, the EC50 was 3630 nM in experiment [3] and 1070 nM in experiment [4].

The values above are taken from ChEMBL document CHEMBL3217456 (Medchemcomm, 2014).
